Experimental data from US7179926B2, “Aryloxyalkylamine NK-1/SSRI inhibitors” (Bristol-Myers Squibb Company, priority 2004, dated 2007).

Experiments:
[1] = target: T1, neurokinin-1 (NK-1) receptor (Homo sapiens, UniProt P25103); assay: NK-1 Binding assay ([125I] Substance P competition, U373 cell membranes); details: Bolton Hunter labeled [125I] Substance P, 30 min at 20° C.
T1 construct: endogenously expresses the neurokinin-1 (NK-1) receptor; endogenous in cells; host or cells: U373 human glioblastoma-astrocytoma cells (membranes)
Method: NK-1 Binding assay. U373 cells, a human glioblastoma-astrocytoma cell line that endogenously expresses the neurokinin-1 (NK-1) receptor, were grown in a monolayer culture at 37° C. in 5% CO2 and fed with Minimum Essential Medium (MEM) supplemented with 10% fetal bovine serum. Membranes were prepared as follows: Cells were washed twice with ice-cold phosphate-buffered saline (pH 7.4) and then incubated for 5–10 minutes with ice-cold 10 mM Tris buffer (pH 7.4) containing 5 mM EDTA. Cells were removed from plates, homogenized, and centrifuged at 32,000×g for 20 minutes. The resulting supernatant was discarded, and the pellet resuspended by homogenization in 50 mM Tris buffer (pH 7.4) containing 1 mM EDTA and centrifuged at 32,000×g for 20 minutes. The resulting supernatant was discarded, and the pellet resuspended by homogenization in NK-1 binding assay buffer (50 mM Tris-HCL (pH 7.4), 3 mM MnCl2, 200 μg/ml BSA, 5 μg/ml chymostatin, 40 μg/ml bacitracin and 4 μg/ml leupeptin).
On the day of an experiment the membrane preparation was thawed, homogenized and diluted with NK-1 binding assay buffer to the appropriate concentration. Competition binding assays were performed in 96 well plate format by incubating membranes (5–10 μg/well) with Bolton Hunter labeled [^125I] Substance P, at a concentration of […], and concentrations of drugs ranging from 10000 to 0.01 nM. Samples were incubated for 30 min at 20° C. then filtered through GF/B glass fiber filters (pretreated with 1% polyethyleneimine and 0.3% Triton X-100) using a Brandel cell harvester. The filters were then washed with 10 ml ice cold 50 mM Tris-HCL (pH 7.4) containing 3 mM MgCl2. Non-specific was defined in the presence of 2 μM L-733,060 (a non-peptide NK-1 antagonist). The amount of radioligand bound in the presence and absence of competitor was analyzed by plotting (−)log drug concentration versus the amount of radioligand specifically bound. The midpoint of the displacement curve (IC50, nM), signifies the potency. Ki values can be calculated using the method of Cheng and Prusoff (Cheng and Prusoff, Biochemical Pharmacology, Vol 22, pp. 3099–3108, Pergamon Press (1973)).

[2] = target: T2, human serotonin transporters (Homo sapiens, UniProt P31645); assay: Serotonin transporter binding assay ([3H]-citalopram competition, HEK-hSERT cell membranes); details: 1 nM [3H]-citalopram, 1 hr at 25° C., read-out: SERT IC50
T2 construct: expressed in transfected cells
Method: Serotonin transporter binding assay. HEK-293 cells that stably express human serotonin transporters (HEK-hSERT cells) were grown at 37° C. in 5% CO2 as a monolayer in medium consisting of EMEM supplemented with 10% fetal bovine serum and G418 sulfate (500 μg/ml). To prepare membranes for radioligand binding experiments, cells were rinsed twice with phosphate-buffered saline (138 mM NaCl, 4.1 mM KCl, 5.1 mM Na2PO4, 1.5 mM KH2PO4, 11.1 mM glucose, pH 7.4). Cells were transferred from plates to polypropylene tubes (16×100 mm), centrifuged at 1,200×g for 5 min and were frozen at −80° C. until assay. Following centrifugation, pellets were resuspended by homogenization in buffer consisting of 50 mM Tris (pH 7.7 at 25° C.), 120 mM NaCl and 5 mM KCl and then centrifuged at 32,000×g for 10 min. Following centrifugation, supernatants were discarded and pellets were resuspended in buffer consisting of 50 mM Tris (pH 7.4 at 25° C.), 150 mM NaCl and 5 mM KCl. Membrane homogenates (200 μl/plate) were incubated with 1 nM [^3H]-citalopram (specific activity=85 Ci/mmol) and increasing concentrations of test compounds for 1 hr at 25° C. in a total volume of 250 μl. The assay buffer consisted of 50 mM Tris (pH 7.4 at 25° C.), 120 mM NaCl and 5 mM KCl (pH 7.4 with conc. HCl). Plates were incubated for 1 hr at 25° C., then filtered through 0.5% PEI treated Whatman GF/B filters using a Brandel cell harvester. Filters were washed three times with 3 ml of ice-cold tris wash buffer. Non-specific binding was defined with 10 μM fluoxetine. Amount of radioligand bound in the presence and absence of competitor was analyzed by plotting (−)log drug concentration versus the amount of radioligand specifically bound. The midpoint of the displacement curve (IC50, nM), signifies the potency. Ki values can be calculated using the method of Cheng and Prusoff (Cheng and Prusoff, Biochemical Pharmacology, Vol 22, pp. 3099–3108, Pergamon Press (1973)).

T1 sequence (P25103 whole entry): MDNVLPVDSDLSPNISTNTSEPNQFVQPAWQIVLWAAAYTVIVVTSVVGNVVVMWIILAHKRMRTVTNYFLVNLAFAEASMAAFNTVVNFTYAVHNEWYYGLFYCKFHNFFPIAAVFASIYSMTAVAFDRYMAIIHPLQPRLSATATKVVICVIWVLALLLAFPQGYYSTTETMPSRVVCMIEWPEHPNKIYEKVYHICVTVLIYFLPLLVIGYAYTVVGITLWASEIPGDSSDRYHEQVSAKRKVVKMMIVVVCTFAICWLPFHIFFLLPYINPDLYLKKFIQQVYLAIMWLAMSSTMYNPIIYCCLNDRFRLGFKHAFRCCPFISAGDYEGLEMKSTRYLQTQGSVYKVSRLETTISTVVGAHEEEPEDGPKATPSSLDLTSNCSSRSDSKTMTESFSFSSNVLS
T2 sequence (P31645 whole entry): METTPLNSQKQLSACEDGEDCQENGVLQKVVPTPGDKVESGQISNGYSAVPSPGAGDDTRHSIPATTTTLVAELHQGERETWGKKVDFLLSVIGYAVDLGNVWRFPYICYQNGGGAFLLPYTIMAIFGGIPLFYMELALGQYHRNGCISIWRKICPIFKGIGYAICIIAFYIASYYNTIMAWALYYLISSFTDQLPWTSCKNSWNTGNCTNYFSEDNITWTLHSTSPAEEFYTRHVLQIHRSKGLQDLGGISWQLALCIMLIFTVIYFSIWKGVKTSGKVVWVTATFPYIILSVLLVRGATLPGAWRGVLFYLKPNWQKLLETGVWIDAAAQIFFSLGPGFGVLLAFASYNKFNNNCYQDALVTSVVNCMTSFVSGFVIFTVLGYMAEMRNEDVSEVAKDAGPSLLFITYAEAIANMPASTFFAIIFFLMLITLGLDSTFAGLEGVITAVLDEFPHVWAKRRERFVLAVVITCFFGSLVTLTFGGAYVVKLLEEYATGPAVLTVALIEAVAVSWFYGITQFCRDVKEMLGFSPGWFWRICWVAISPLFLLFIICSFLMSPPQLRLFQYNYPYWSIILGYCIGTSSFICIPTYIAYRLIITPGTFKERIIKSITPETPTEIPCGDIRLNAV

IC50 [1] | IC50 [2] | Compound
> 300 nM | > 300 nM | NCCC(O)(COCc1ccccc1)c1ccccc1 (stereo not shown) [Example 47, 4-amino-1-(benzyloxy)-2-phenylbutan-2-ol]
> 300 nM | 1 to 100 nM | NCCC(O)(COCc1ccccc1Br)c1ccccc1 (stereo not shown) [Example 52, 1-(2-bromobenzyloxy)-4-amino-2-phenylbutan-2-ol]
> 300 nM | 100 to 300 nM | NCCC(O)(COCc1ccc(C(F)(F)F)cc1)c1ccccc1 (stereo not shown) [Example 56, 1-(4-(trifluoromethyl)benzyloxy)-4-amino-2-phenylbutan-2-ol]
> 300 nM | 1 to 100 nM | NCCC(O)(COCc1ccccc1C(F)(F)F)c1ccccc1 (stereo not shown) [Example 54, 1-(2-(trifluoromethyl)benzyloxy)-4-amino-2-phenylbutan-2-ol]
> 300 nM | 1 to 100 nM | NCCC(O)(COCc1cccc(Cl)c1)c1ccccc1 (stereo not shown) [Example 65, 1-(3-chlorobenzyloxy)-4-amino-2-phenylbutan-2-ol]
> 300 nM | 1 to 100 nM | NCCC(O)(COCc1ccc(Cl)cc1)c1ccccc1 (stereo not shown) [Example 70, 1-(4-chlorobenzyloxy)-4-amino-2-phenylbutan-2-ol]
> 300 nM | 1 to 100 nM | Cc1cccc(COCC(O)(CCN)c2ccccc2)c1 (stereo not shown) [Example 60, 1-(3-methylbenzyloxy)-4-amino-2-phenylbutan-2-ol]
> 300 nM | 100 to 300 nM | NCCC(O)(COCc1ccc(Br)cc1)c1ccccc1 (stereo not shown) [Example 66, 1-(4-bromobenzyloxy)-4-amino-2-phenylbutan-2-ol]
> 300 nM | 1 to 100 nM | NCCC(O)(COCc1ccccc1Cl)c1ccccc1 (stereo not shown) [Example 50, 1-(2-chlorobenzyloxy)-4-amino-2-phenylbutan-2-ol]

The next lines start with the compound.

Compound | IC50 [1] | IC50 [2]
Cc1ccc(C(O)(CCN)COCc2cc(C(F)(F)F)cc(C(F)(F)F)c2)cc1 (stereo not shown) [Example 9, 1-(3,5-bis(trifluoromethyl)benzyloxy)-4-amino-2-p-tolylbutan-2-ol] | 1 to 100 nM | 1 to 100 nM
CN(C)CCC(O)(COCc1cc(C(F)(F)F)cc(C(F)(F)F)c1)c1ccccc1 (stereo not shown) [Example 5, 1-(3,5-bis(trifluoromethyl)benzyloxy)-4-(dimethylamino)-2-phenylbutan-2-ol] | 1 to 100 nM | > 300 nM
CNCCC(O)(COCc1cc(C(F)(F)F)cc(C(F)(F)F)c1)c1ccccc1 (stereo not shown) [Example 6, 1-(3,5-bis(trifluoromethyl)benzyloxy)-4-(methylamino)-2-phenylbutan-2-ol] | 1 to 100 nM | 1 to 100 nM
COc1ccc(C(O)(CCN)COCc2cc(C(F)(F)F)cc(C(F)(F)F)c2)cc1 (stereo not shown) [Example 20, 1-(3,5-bis(trifluoromethyl)benzyloxy)-4-amino-2-(4-methoxyphenyl)butan-2-ol] | 100 to 300 nM | 1 to 100 nM
NCCC(O)(COCc1cc(C(F)(F)F)cc(C(F)(F)F)c1)c1ccc(F)c(F)c1 (stereo not shown) [Example 15, 1-(3,5-bis(trifluoromethyl)benzyloxy)-4-amino-2-(3,4-difluorophenyl)butan-2-ol] | 1 to 100 nM | 1 to 100 nM
CN(C)CCC(C)(COCc1cc(C(F)(F)F)cc(C(F)(F)F)c1)c1ccccc1 (stereo not shown) [Example 76, 1-(3,5-bis(trifluoromethyl)benzyloxy)-4-dimethylamino-2-methyl-2-phenylbutane] | 100 to 300 nM | 1 to 100 nM
CNCC(O)(COCc1cc(C(F)(F)F)cc(C(F)(F)F)c1)c1ccccc1 (stereo not shown) [Example 3, 1-(3,5-bis(trifluoromethyl)benzyloxy)-3-(methylamino)-2-phenylpropan-2-ol] | 1 to 100 nM | 100 to 300 nM
COc1ccccc1C(O)(CCN)COCc1cc(C(F)(F)F)cc(C(F)(F)F)c1 (stereo not shown) [Example 45, 1-(3,5-bis(trifluoromethyl)benzyloxy)-4-amino-2-(2-methoxyphenyl)butan-2-ol] | 1 to 100 nM | 1 to 100 nM
COc1cccc(C(O)(CCN)COCc2cc(C(F)(F)F)cc(C(F)(F)F)c2)c1 (stereo not shown) [Example 14, 1-(3,5-bis(trifluoromethyl)benzyloxy)-4-amino-2-(3-methoxyphenyl)butan-2-ol] | 1 to 100 nM | 1 to 100 nM
CN(C)c1ccc(C(O)(CCN)COCc2cc(C(F)(F)F)cc(C(F)(F)F)c2)cc1 (stereo not shown) [Example 16, 1-(3,5-bis(trifluoromethyl)benzyloxy)-4-amino-2-(4-(dimethylamino)phenyl)butan-2-ol] | > 300 nM | > 300 nM
NCCC(O)(COCc1cc(C(F)(F)F)cc(C(F)(F)F)c1)c1ccc2ccccc2c1 (stereo not shown) [Example 11, 1-(3,5-bis(trifluoromethyl)benzyloxy)-4-amino-2-(naphthalen-2-yl)butan-2-ol] | 100 to 300 nM | 1 to 100 nM
NCCC(O)(COCc1cc(C(F)(F)F)cc(C(F)(F)F)c1)c1cccc(F)c1 (stereo not shown) [Example 12, 1-(3,5-bis(trifluoromethyl)benzyloxy)-4-amino-2-(3-fluorophenyl)butan-2-ol] | 1 to 100 nM | 1 to 100 nM
CC(CCN)(COCc1cc(C(F)(F)F)cc(C(F)(F)F)c1)c1ccccc1 (stereo not shown) [Example 74, 1-(3,5-bis(trifluoromethyl)benzyloxy)-4-amino-2-methyl-2-phenylbutane] | 1 to 100 nM | 1 to 100 nM
Cc1ccc(C(O)(CCN)COCc2cc(C(F)(F)F)cc(C(F)(F)F)c2)cc1C (stereo not shown) [Example 32, 1-(3,5-bis(trifluoromethyl)benzyloxy)-4-amino-2-(3,4-dimethylphenyl)butan-2-ol] | 1 to 100 nM | 1 to 100 nM
NCCC(O)(COCc1cc(Cl)cc(Cl)c1)c1ccccc1 (stereo not shown) [Example 61, 1-(3,5-dichlorobenzyloxy)-4-amino-2-phenylbutan-2-ol] | 1 to 100 nM | 1 to 100 nM
Cc1cc(C(O)(CCN)COCc2cc(C(F)(F)F)cc(C(F)(F)F)c2)ccc1F (stereo not shown) [Example 13, 1-(3,5-bis(trifluoromethyl)benzyloxy)-4-amino-2-(4-fluoro-3-methylphenyl)butan-2-ol] | 1 to 100 nM | 1 to 100 nM
NCCC(O)(COCc1cc(C(F)(F)F)cc(C(F)(F)F)c1)c1cccc2ccccc12 (stereo not shown) [Example 34, 1-(3,5-bis(trifluoromethyl)benzyloxy)-4-amino-2-(naphthalen-1-yl)butan-2-ol] | 1 to 100 nM | 1 to 100 nM
NCCC(O)(COCc1cc(C(F)(F)F)cc(C(F)(F)F)c1)c1cccs1 (stereo not shown) [Example 44, 1-(3,5-bis(trifluoromethyl)benzyloxy)-4-amino-2-(thiophen-2-yl)butan-2-ol] | 1 to 100 nM | 1 to 100 nM
Cc1cc(Cl)ccc1C(O)(CCN)COCc1cc(C(F)(F)F)cc(C(F)(F)F)c1 (stereo not shown) [Example 40, 1-(3,5-bis(trifluoromethyl)benzyloxy)-4-amino-2-(4-chloro-2-methylphenyl)butan-2-ol] | 1 to 100 nM | 1 to 100 nM
CN(C)CC(C)(COCc1cc(C(F)(F)F)cc(C(F)(F)F)c1)c1ccccc1 (stereo not shown) [Example 79, 1-(3,5-bis(trifluoromethyl)benzyloxy)-3-dimethylamino-2-methyl-2-phenylpropane] | 1 to 100 nM | 1 to 100 nM
